The test addresses T1, CHK1 (Homo sapiens, UniProt O14757).
T1 construct: His; purchased Invitrogen
T1 sequence (O14757 1-476): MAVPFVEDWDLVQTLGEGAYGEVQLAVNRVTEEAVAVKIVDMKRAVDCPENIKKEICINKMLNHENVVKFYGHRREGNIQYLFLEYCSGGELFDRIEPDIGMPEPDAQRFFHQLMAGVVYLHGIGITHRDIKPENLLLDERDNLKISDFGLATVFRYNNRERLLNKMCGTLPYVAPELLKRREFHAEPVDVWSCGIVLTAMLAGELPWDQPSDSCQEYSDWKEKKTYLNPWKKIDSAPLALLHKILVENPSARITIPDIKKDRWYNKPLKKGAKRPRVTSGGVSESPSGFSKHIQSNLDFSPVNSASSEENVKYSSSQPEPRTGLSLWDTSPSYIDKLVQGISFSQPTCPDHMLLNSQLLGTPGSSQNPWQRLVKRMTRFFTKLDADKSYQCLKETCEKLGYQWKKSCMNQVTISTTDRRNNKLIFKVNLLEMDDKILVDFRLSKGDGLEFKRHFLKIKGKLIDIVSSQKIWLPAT
Description: CHK1 Enzyme Assay (phosphorylation of Chktide peptide, 33P-ATP filter assay). The format is biochemical. The settings on record: 12.5 nM His-CHK1, 0.01 mM ATP, 40 minutes at 30° C.; read-out: CHK1 Enzyme Activity (IC50 range). The gist of the method: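 His-CHK1 (12.5 nM) phosphorylating 14.8 μM Chktide with 0.01 mM ATP plus 33P-γ-ATP, in 50 mM Hepes-NaOH pH 7.5 with 0.1 mg/mL BSA. Incubated with inhibitor for 40 min at 30 °C. Stopped with phosphoric acid; phosphopeptide captured on filter and counted by scintillation.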

As a reminder, the IC50 is the midpoint of a concentration-inhibition curve. Take `C[C@@H]1CN(Cc2ccc3[nH]c(-c4cc(NC(=O)c5cnn(Cc6ccc(F)cc6)c5)c[nH]c4=O)cc3c2)C[C@H](C)O1` [Example 76, 1-(4-Fluoro-benzyl)-1H-pyrazole-4-carboxylic acid {5-[5-(cis-2,6-dimethyl-morpholin-4-ylmethyl)-1H-indol-2-yl]-6-oxo-1,6-dihydro-pyridin-3-yl}-amide]: the IC50 is less than 100 nM.

For the molecule `CN(Cc1ccc2[nH]c(-c3cc(NC(=O)c4cnn(Cc5ccccc5)c4)c[nH]c3=O)cc2c1)C1CCCCC1` [Example 77], the IC50 was less than 100 nM.

`COCCN(C)Cc1ccc2[nH]c(-c3cc(NC(=O)c4cnn(Cc5ccccc5)c4)c[nH]c3=O)cc2c1` [Example 79, 1-Benzyl-1H-pyrazole-4-carboxylic acid [5-(5-{1(2-methoxy-ethyl)-methyl-aminol-methyl}-1H-indol-2-yl)-6-oxo-1,6-dihydro-pyridin-3-yl]-amide]: the IC50 was less than 100 nM.

Take `O=C(Nc1c[nH]c(=O)c(-c2cc3cc(CN4CCCCC4)ccc3[nH]2)c1)c1cnn(Cc2ccc(F)cc2)c1` [Example 80, 1-(4-Fluoro-benzyl)-1H-pyrazole-4-carboxylic acid [6-oxo-5-(5-piperidin-1-ylmethyl-1H-indol-2-yl)-1,6-dihydro-pyridin-3-yl]-amide]: the IC50 was less than 100 nM.

Regarding `O=C(Nc1c[nH]c(=O)c(-c2cc3cc(CN4CCC(F)CC4)ccc3[nH]2)c1)c1cnn(Cc2ccc(F)cc2)c1` [Example 81, 1-(4-Fluoro-benzyl)-1H-pyrazole-4-carboxylic acid {5-[5-(4-fluoro-piperidin-1-ylmethyl)-1H-indol-2-yl]-6-oxo-1,6-dihydro-pyridin-3-yl}-amide], the IC50 is less than 100 nM.

With `CC1CCN(Cc2ccc3[nH]c(-c4cc(NC(=O)c5cnn(Cc6ccc(F)cc6)c5)c[nH]c4=O)cc3c2)CC1` [Example 82, 1-(4-Fluoro-benzyl)-1H-pyrazole-4-carboxylic acid {5-[5-(4-methyl-piperidin-1-ylmethyl)-1H-indol-2-yl]-6-oxo-1,6-dihydro-pyridin-3-yl}-amide], the IC50 is less than 100 nM.

With `CCNCc1ccc2[nH]c(-c3cc(NC(=O)c4cnn(Cc5ccc(F)cc5)c4)c[nH]c3=O)cc2c1` [Example 83, 1-(4-Fluoro-benzyl)-1H-pyrazole-4-carboxylic acid [5-(5-ethylaminomethyl-1H-indol-2-yl)-6-oxo-1,6-dihydro-pyridin-3-yl]-amide], the IC50 was less than 100 nM.

For the molecule `CN(Cc1ccc2[nH]c(-c3cc(NC(=O)c4cnn(Cc5ccc(F)cc5)c4)c[nH]c3=O)cc2c1)C1CCCCC1` [Example 84], the IC50 was less than 100 nM.

Turning to `CC(c1ccccc1)n1cc(C(=O)Nc2c[nH]c(=O)c(-c3cc4cc(CN5CCCCC5)ccc4[nH]3)c2)cn1` (stereo not shown) [Example 85, 1-(1-Phenyl-ethyl)-1H-pyrazole-4-carboxylic acid [6-oxo-5-(5-piperidin-1-ylmethyl-1H-indol-2-yl)-1,6-dihydro-pyridin-3-yl]-amide], the IC50 is less than 100 nM.

Turning to `CC(c1ccccc1)n1cc(C(=O)Nc2c[nH]c(=O)c(-c3cc4cc(CN5CCOCC5)ccc4[nH]3)c2)cn1` (stereo not shown) [Example 86, 1-(1-Phenyl-ethyl)-1H-pyrazole-4-carboxylic acid [5-(5-morpholin-4-ylmethyl-1H-indol-2-yl)-6-oxo-1,6-dihydro-pyridin-3-yl]-amide], the IC50 was less than 100 nM.

With `CC(c1ccc(F)cc1)n1cc(C(=O)Nc2c[nH]c(=O)c(-c3cc4cc(CN5CCCCC5)ccc4[nH]3)c2)cn1` (stereo not shown) [Example 88, 1-[1-(4-Fluoro-phenyl)-ethyl]-1H-pyrazole-4-carboxylic acid [6-oxo-5-(5-piperidin-1-ylmethyl-1-H-indol-2-yl)-1,6-dihydro-pyridin-3-yl]-amide], the half-maximal inhibitory concentration (IC50) was less than 100 nM.

`CC(c1ccc(F)cc1)n1cc(C(=O)Nc2c[nH]c(=O)c(-c3cc4cc(CN5CCN(C)CC5)ccc4[nH]3)c2)cn1` (stereo not shown) [Example 89, 1-[1-(4-Fluoro-phenyl)-ethyl]-1H-pyrazole-4-carboxylic acid {5-[5-(4-methylpiperazin-1-ylmethyl)-1H-indol-2-yl]-6-oxo-1,6-dihydro-pyridin-3-yl}-amide]: the IC50 was less than 100 nM.

For the molecule `CC(c1ccc(F)cc1)n1cc(C(=O)Nc2c[nH]c(=O)c(-c3cc4cc(CN5CCC(F)CC5)ccc4[nH]3)c2)cn1` (stereo not shown) [Example 90, 1-[1-(Fluoro-phenyl)-ethyl]-1H-pyrrazole-4-carboxylic acid {5-[5-(4-fluoro-piperidin-1ylmethyl)-1H-indol-2-yl]-6-oxo-1,6-dihydro-pyridin-3-yl}-amide], the IC50 was less than 100 nM.

With `CC(c1ccccc1)n1cc(C(=O)Nc2c[nH]c(=O)c(-c3cc4cc(CN5C[C@@H](C)O[C@@H](C)C5)ccc4[nH]3)c2)cn1` (stereo partly drawn) [Example 91, 1-(1-Phenyl-ethyl)-1H-pyrazole-4-carboxylic acid {5-[5-(cis-2,6-dimethyl-morpholin-4-ylmethyl)-1H-indol-2-yl]-6-oxo-1,6-dihydro-pyridin-3-yl}-amide], the IC50 is less than 100 nM.

As for `CC1CCN(Cc2ccc3[nH]c(-c4cc(NC(=O)c5cnn(C(C)c6ccccc6)c5)c[nH]c4=O)cc3c2)CC1` (stereo not shown) [Example 92, 1-(1-Phenyl-ethyl)-1H-pyrazole-4-carboxylic acid {5-[5-(4-methyl-piperidin-1-ylmethyl)-1H-indol-2-yl]-6-oxo-1,6-dihydro-pyridin-3-yl}-amide], the IC50 is less than 100 nM.

Turning to `CC(c1ccccc1)n1cc(C(=O)Nc2c[nH]c(=O)c(-c3cc4ccccc4[nH]3)c2)cn1` (stereo not shown) [Example 93, 1-(1-Phenylethyl)-1H-pyrazole-4-carboxylic acid [5-(1H-indol-2-yl)-6-oxo-1,6-dihydropyridin-3-yl]-amide], the IC50 was less than 100 nM.

`O=C(Nc1c[nH]c(=O)c(-c2cc3ccccc3[nH]2)c1)c1cnn(CCCc2ccccc2)c1` [Example 94, 1-(3-Phenyl-propyl)-1H-pyrazole-4-carboxylic acid [5-(1H-indol-2-yl)-6-oxo-1,6-dihydro-pyridin-3-yl]-amide]: the 50% inhibitory concentration (IC50) was less than 100 nM.

Turning to `O=C(Nc1c[nH]c(=O)c(-c2cc3cc(CN4CCCCC4)ccc3[nH]2)c1)c1cnn(CCc2ccc(F)cc2)c1` [Example 95, 1-[2-(4-Fluoro-phenyl)-ethyl]-1H-pyrazole-4-carboxylic acid [6-oxo-5-(5-piperidin-1-ylmethyl-1H-indol-2-yl)-1,6-dihydro-pyridin-3-yl]-amide], the IC50 was less than 100 nM.

As for `O=C(Nc1c[nH]c(=O)c(-c2cc3cc(CN4CCC(F)CC4)ccc3[nH]2)c1)c1cnn(CCc2ccc(F)cc2)c1` [Example 96, 1-[2-(4-Fluoro-phenyl)-ethyl]-1H-pyrazole-4-carboxylic acid {5-[5-(4-fluoro-piperidin-1-ylmethyl)-1H-indol-2-yl]-6-oxo-1,6-dihydro-pyridin-3-yl}-amide], the IC50 is less than 100 nM.

`O=C(Nc1cnn(Cc2ccc(F)c(F)c2)c1)c1c[nH]c(=O)c(-c2cc3cc(CN4CCC(F)CC4)ccc3[nH]2)c1` [Example 97, 5-[5-(4-Fluoro-piperidin-1-ylmethyl)-1H-indol-2-yl]-6-oxo-1,6-dihydro-pyridine-3-carboxylic acid [1-(3,4-difluoro-benzyl)-1H-pyrazol-4-yl]-amide]: the IC50 was less than 100 nM.

As to `O=C(Nc1cnn(Cc2ccc(F)c(F)c2)c1)c1c[nH]c(=O)c(-c2cc3cc(CN4CCCC4)ccc3[nH]2)c1` [Example 98, 6-oxo-5-(5-pyrrolidin-1-ylmethyl-1H-indol-2-yl)-1,6-dihydro-pyridine-3-carboxylic acid [1-(3,4-difluoro-benzyl)-1H-pyrazol-4-yl]-amide], the IC50 is less than 100 nM.

On to `O=C(Nc1cnn(Cc2ccc(F)c(F)c2)c1)c1c[nH]c(=O)c(-c2cc3cc(CN4CCOCC4)ccc3[nH]2)c1` [Example 99, 5-(5-Morpholin-4-ylmethyl-1H-indol-2-yl)-6-oxo-1,6-dihydro-pyridine-3-carboxylic acid [1-(3,4-difluoro-benzyl)-1H-pyrazol-4-yl]-amide], for which the IC50 was less than 100 nM.

`O=C(Nc1cnn(Cc2ccc(F)c(F)c2)c1)c1c[nH]c(=O)c(-c2cc3cc(CN4CCC(O)CC4)ccc3[nH]2)c1` [Example 100, 5-[5-(4-Hydroxypiperidin-1-ylmethyl)-1H-indol-2yl]-6-oxo-1,6-dihydropyridine-3-carboxylic acid[1-(3,4-difluorobenzyl)-1H-pyrazol-4-yl]-amide]: the IC50 was less than 100 nM.

In the case of `CN(CCO)Cc1ccc2[nH]c(-c3cc(C(=O)Nc4cnn(Cc5ccc(F)c(F)c5)c4)c[nH]c3=O)cc2c1` [Example 101, 5-(5-{[(2-hydroxyethyl)-methylamino]-methyl}-1H-indol-2yl)-6-oxo-1,6-dihydropyridine-3-carboxylic acid[1-(3,4-difluorobenzyl)-1H-pyrazol-4-yl]-amide], the IC50 was less than 100 nM.

Regarding `CCN(CCO)Cc1ccc2[nH]c(-c3cc(C(=O)Nc4cnn(Cc5ccc(F)c(F)c5)c4)c[nH]c3=O)cc2c1` [Example 102, 5-(5-{[Ethyl-(2-hydroxyethyl)amino]-methyl}-1H-indol-2yl)-6-oxo-1,6-dihydropyridine-3-carboxylic acid[1-(3,4-difluorobenzyl)-1H-pyrazol-4-yl]-amide], the IC50 is less than 100 nM.

These data come from US9604975B2, “Indolyl-pyridone derivatives having checkpoint kinase 1 inhibitory activity” (Vernalis (R&D) Ltd., priority 2009, dated 2017).
